{
  "source": "patent US20240197761A1",
  "about": "“FUCOSYLATION AND IMMUNE MODULATION IN CANCER” (H. LEE MOFFITT CANCER CENTER AND RESEARCH INSTITUTE, INC., priority 2021, published 2024)",
  "key": {"4T1 mouse breast tumor": {"system": "4T1 mouse breast tumor", "experiment": "4T1 mouse breast tumor growth ± L-fucose supplemented water", "format": "in vivo, Balb/C mice", "settings": "500 mM L-fucose supplemented water ad libitum from 100 mm^3 (FIG. 3H)", "procedure": "To determine which immune cell populations were affected by L-fucose, another mouse melanoma model treated with control or L-fucose-supplemented water was used. […] Rather than being immunosuppressive, these cells elicit immunostimulatory activity (at this point in terms of augmenting T cell activation) (FIG. 3). […] In fact, upon reaching 100 mm^3, 4T1 mouse breast tumor-bearing Balb/C mice were provided with control or 500 mM L-fucose supplemented water ad libitum and L-fucose suppressed tumor growth by 50% (FIG. 3H). Moreover, the number of TILs increased following administration of L-fucose (FIG. 3C). We next looked at the specific populations of cells proliferating in TILs following L-fucose administration. We saw a 3.1 fold increase in MDSC cell and CD4 T cells (FIG. 3D). To verify that the increases in the TIL populations were attributed to fucosylation, we treated mice with L-fucose or 2FF (fucosylation inhibitor) and observed the change in MDSC. We observed that L-fucose increased MDSC populations, but 2FF decreased MDSC (FIG. 3E). […] This shift is depicted in FIG. 4."}, "[1]": {"system": "NRAS G13D-mutant mouse melanoma (SW1) tumors", "experiment": "SW1 mouse melanoma model ± oral L-fucose: tumor growth, tumor fucosylation, itIC and splenic flow cytometric profiling", "format": "in vivo, C3H/HeN mice", "settings": "oral L-fuc", "procedure": "Tumors of SW1 or SM1 melanoma cells from […] or C57BL/6 mice, respectively) were digested using 1× tumor digest buffer (0.5 mg/mL Collagenase I, 0.5 mg/mL Collagenase IV, 0.25 mg/mL Hyalyronidase V, 0.1 mg/mL DNAse I in HBSS (Millipore Sigma (St. Louis, MO)). Tumors were homogenized using the Miltenyi MACs dissociator. Red blood cells were lysed using ACK lysis buffer (Life Technologies, (Grand Island, NY)). Tumor homogenate cells were counted using a standard hemocytometer.\nTotal TILs were gated first to single cells (based on forward scatter height vs width, followed by side scatter height vs. width). Live cells were gated from the Zombie negative population from the population above. TILs were gated based on splenocyte size from a control spleen. Individual immune subpopulations were sub-gated from the total TIL population using the following staining criteria: CD3+ for CD3+ T cells; CD3+/CD4+/CD8− for CD4+T cells; CD3+/CD4−/CD8+ for CD8+ T cells, CD11c+/CD11b+ for DCs; either NK1.1 (for C57/BL6 mice) or DX5 (for C3H/HeJ) for NK cells; CD11b+/GR1+ for MDSC-like cells; and F4/80+ for macrophages. Single-cell suspensions from tumor and spleen tissue were stained with Live/Dead Zombie NIR (Biolegend, (San Diego, CA)) at 1:1,000 in PBS for 20 min. Cell suspensions were spun down and stained with the following with antibodies at 0.5 μg/ml per antibody: APC anti-mouse CD3, Pacific Blue anti-mouse CD4, BV785 anti-mouse CD8, PerCP anti-mouse CD25, FITC anti-mouse F4/80, PeCy7 anti-mouse CD11c, PE anti-mouse NK1.1 or PE anti-mouse DX5, and PerCP-Cy5.5 anti-mouse CD11 b. After staining, the cells were washed and fixed (2% formaldehyde), followed by another wash and flow cytometric analysis. The compensation controls were prepared using 0.5 μg/mL of each antibody with UltraComp eBeads, (ThermoFisher Scientific (Waltham, MA)). All samples were subject to flow cytometric profiling using a LSR Flow Cytometer (BD Biosciences (San Jose, CA)) and analysis as indicated using FlowJo software (BD Biosciences (San Jose, CA)).\nFor assessment of mouse tumor fucosylation, FFPE tumor sections were immunostained with FITC-conjugated AAL lectin (0.4 μg/mL, Vector Laboratories (Burlingame, CA)) and rabbit anti-Mart1+rabbit anti-S100 (melanoma marker cocktail). The slides were mounted with Vectashield+DAPI (Vector Laboratories (Burlingame, CA)). Four representative microscopy images per tumor were acquired using a Keyence BZ-X710, and images were process and analyzed using FIJI (NIH) as follows: melanoma marker-positive regions were assigned as regions of interest (ROI) in which we measured Integrated density of AAL signal. Integrated densities of control tumors were assigned as 1, and Integrated AAL density values of experimental tumors were divided by control to produce relative fold changes and plotted as column charts. […]"}},
  "data": [
    {"smiles": "C[C@H](O)[C@@H](O)[C@@H](O)[C@H](O)C=O", "note": "[L-fucose]", "values": [
      {"measurement": "suppression of tumor growth", "setting": "4T1 mouse breast tumor", "result": 50, "unit": "%"},
      {"measurement": "CD4+ and CD8+ T cells of total itICs", "setting": "[1]", "result": "doubled"},
      {"measurement": "increase of total itICs", "setting": "[1]", "result": "10-50 fold"},
      {"measurement": "increase of tumor fucosylation", "setting": "[1]", "result": "~2", "unit": "fold"},
      {"measurement": "reduction of tumor growth", "setting": "[1]", "result": "~50", "unit": "%"},
      {"measurement": "splenic lymphocyte profiles", "setting": "[1]", "result": "without altering"}
    ]}
  ]
}
